Assay results reported in US7037914B2, “Carboxylic acid derivative and a pharmaceutical composition containing the derivative as active ingredient” (Ono Pharmaceutical Co., Ltd., priority 1998, dated 2006).

Legend:
human PPAR α = molecular target: T1, human PPAR α (Homo sapiens, UniProt Q07869); experiment: Luciferase assay using human PPAR α (Gal4-PPAR chimeric receptor in CV-1 cells); assay type: cell-based; conditions: compound 0.3 μM; luciferase activity of carbaprostacylin 10 μM defined as 1.0
T1 construct: expressed in transfected cells; host or cells: CV-1 cells
T1 sequence (Q07869 167-468): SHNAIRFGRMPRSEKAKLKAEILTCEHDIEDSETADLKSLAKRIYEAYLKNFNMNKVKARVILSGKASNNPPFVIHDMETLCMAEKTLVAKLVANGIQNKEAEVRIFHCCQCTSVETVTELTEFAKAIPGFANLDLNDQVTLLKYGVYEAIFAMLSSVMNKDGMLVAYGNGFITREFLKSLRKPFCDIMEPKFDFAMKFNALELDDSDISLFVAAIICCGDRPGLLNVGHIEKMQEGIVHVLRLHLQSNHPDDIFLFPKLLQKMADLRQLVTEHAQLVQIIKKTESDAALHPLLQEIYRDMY

KKAy/Ta mice = experiment: Hypoglycemic and hypolipidemic effects in KKAy mice; assay type: in vivo; conditions: 3 days, food containing 0.03 % (w/w) compound, 38.9 mg/kg/day (converted)
Description: Hypoglycemic and hypolipidemic effects in KKAy mice:
Male, 7-weeks old KKAy/Ta mice weighed from […] (seven mice per group) were pre-breaded for approximately one week and acclimatized for three days on milled diet. On the first day of the experiment (Day 0), mice were divided into some groups by weight, plasma glucose and triglyceride (TG) levels to minimize the differences among groups. From the next day for two days they were given compounds by food mixture containing 0.03 % (w/w) of the compound of the present invention or by milled diet only. At 13:00 of the third day, blood samples were collected and glucose and TG were measured. Additionally, there was no significant difference in the food intake between control group (milled diet only) and compounds-treated group (milled diet containing 0.03 % compounds).

SD rats = experiment: Hypocholesterolemic and hypolipidemic effects in normal rats; assay type: in vivo; conditions: 10 mg/kg orally, hypercholesterolemic food, blood sampled next day
Description: Hypocholesterolemic and hypolipidemic effects in normal rats:
Male, six-weeks old SD rats (seven rats per group) were left to take milled diet and water ad libitum and were acclimatized for 1 week.
At 9:00 on the first day of the experiment (Day 0) blood sampling was done from tail vein. The rats were divided into some groups by body weight, triglyceride(TG), non-esterified fatty acid (NEFA), total cholesterol (TC) values to minimize differences of the parameters among the groups. At 17:00 of the day the compound of the present invention suspended in 0.5% aqueous solution of carboxymethylcellulose (CMC) was orally administered at a dose of 10 mg/kg, and thereafter, with hypercholesterolemic food (5.5% peanut oil, 1.5% cholesterol and 0.5% cholic acid were mixed with milled CRF-1 diet, Charles River Inc.) was given to the rats.
At 9:00 of the next day, blood sampling was done from tail vein. The lipid values in blood (TG, NEFA and TC values) were measured.
There was no significant difference of the food intake between the control group (provided only 0.5% CMC) and the group treated with the compounds of the present invention.

human PPAR γ = molecular target: T2, human PPAR γ (Homo sapiens, UniProt P37231); experiment: Luciferase assay using human PPAR γ (Gal4-PPAR chimeric receptor in CV-1 cells); assay type: cell-based; conditions: compound 1.0 μM; luciferase activity of troglitazone 10 μM defined as 1.0
T2 construct: expressed in transfected cells; host or cells: CV-1 cells
T2 sequence (P37231 176-477 isoform P37231-2): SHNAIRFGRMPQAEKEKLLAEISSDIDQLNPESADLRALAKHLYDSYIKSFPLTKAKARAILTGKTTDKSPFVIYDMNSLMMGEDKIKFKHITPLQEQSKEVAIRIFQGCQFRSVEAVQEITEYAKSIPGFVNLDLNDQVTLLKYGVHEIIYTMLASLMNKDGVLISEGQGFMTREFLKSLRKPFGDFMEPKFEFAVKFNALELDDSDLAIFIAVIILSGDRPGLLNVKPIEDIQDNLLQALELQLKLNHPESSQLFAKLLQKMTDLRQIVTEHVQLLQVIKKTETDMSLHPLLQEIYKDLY

human PPAR δ = molecular target: T3, human PPAR δ (Homo sapiens, UniProt Q03181); experiment: Luciferase assay using human PPAR δ (Gal4-PPAR chimeric receptor in CV-1 cells); assay type: cell-based; conditions: luciferase activity with solvent containing no compound defined as 1.0
T3 construct: expressed in transfected cells; host or cells: CV-1 cells
T3 sequence (Q03181 139-441): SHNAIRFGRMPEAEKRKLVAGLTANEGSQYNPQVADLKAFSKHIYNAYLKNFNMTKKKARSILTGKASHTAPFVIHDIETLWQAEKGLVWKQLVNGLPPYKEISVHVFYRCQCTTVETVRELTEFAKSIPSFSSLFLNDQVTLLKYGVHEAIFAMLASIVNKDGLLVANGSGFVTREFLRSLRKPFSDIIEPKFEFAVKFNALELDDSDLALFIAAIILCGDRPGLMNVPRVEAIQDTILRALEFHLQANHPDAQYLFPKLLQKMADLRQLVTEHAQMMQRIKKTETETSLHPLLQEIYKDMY

Compound	PPAR α agonist activity, Relative Activity (human PPAR α)	PPAR δ agonist activity, relative activity (human PPAR δ; concentration 1.0 μM)	PPAR δ agonist activity, relative activity (human PPAR δ; concentration 10.0 μM)	also measured
Cc1oc(-c2ccccc2)nc1CCOc1cccc(CCCC(=O)O)c1 [Example 2 (5), 4-(3-(2-(5-methyl-2-phenyloxazol-4-yl)ethoxy)phenyl)butanoic acid]	0.8	–	–	–
O=C(O)CSCc1cccc(OCc2ccc(-c3ccccc3)cc2)c1 [Example 2 (11), 2-(3-(biphenyl-4-ylmethoxy)phenylmethylthio)acetic acid]	3.2	–	–	–
Cc1oc(-c2ccccc2)nc1CCOc1cccc(CSCC(=O)O)c1 [Example 2 (12), 2-(3-(2-(5-methyl-2-phenyloxazol-4-yl)ethoxy)phenylmethylthio)acetic acid]	1.7	–	–	glycemic value (KKAy/Ta mice; control 495 ± 35): 214 ± 19 mg/dL; TG value (KKAy/Ta mice; control 558 ± 107): 221 ± 66 mg/dL; TG value (SD rats; control 147 ± 9): 100 ± 14 mg/dL; TC value (SD rats; control 188 ± 5): 70 ± 5 mg/dL; NEFA value (SD rats; control 489 ± 66): 178 ± 14 μEq/l; PPAR γ agonist activity, Relative Activity (human PPAR γ): 1.4
Cc1oc(-c2ccccc2)nc1CCOc1cccc(CC(=O)O)c1 [Example 2 (22)]	–	9.3	66.7	–
Cc1oc(-c2ccc3c(c2)OCO3)nc1CCOc1cccc(CC(=O)O)c1 [Example 2 (93), 2-(3-(2-(5-methyl-2-(1,3-dioxaindan-5-yl)oxazol-4-yl)ethoxy)phenyl)acetic acid]	–	36.1	54.7	–
